Measurements: ChEMBL document CHEMBL1201862, “PubChem BioAssay data set” (2004)
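Interpolation was linear, between the two tested concentrations surrounding the appropriate level; five concentrations were tested over 48 hours in 96-well plates. At the GI50, growth is halved.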 Active and inactive are the calls of the source. No stated cut-off is given here; in the data, active = GI50 up to about 1.1 µM and inactive = higher. *1 amine or outer side, *2 acyl side, *3 side chain or, on linkers, in order; H or OH if unused. Where a SMILES comes first, the peptide text is derived from it. The star is where a group is joined. γGlu = O=C(O)[CH](CCC(=O)[*:2])N[*:1]; NHOH = ON*

What was measured:
Test in all cases: NCI anticancer screen, dose series, 48 h
ACHN = test system: ACHN
BT-549 = test system: BT-549
CAKI-1 = test system: CAKI-1
EKVX = test system: EKVX
HCC 2998 = test system: HCC 2998
HCT-15 = test system: HCT-15
HOP-62 = test system: HOP-62
HT-29 = test system: HT-29
Hs-578T = test system: Hs-578T
K562 = test system: K562
MCF7 = test system: MCF7
MDA-MB-231 = test system: MDA-MB-231
MDA-N = test system: MDA-N
NCI/ADR-RES = test system: NCI/ADR-RES
LOX IMVI = test system: LOX IMVI
OVCAR-3 = test system: OVCAR-3
PC-3 = test system: PC-3
SK-MEL-5 = test system: SK-MEL-5
SNB-75 = test system: SNB-75

| Structure (SMILES) | GI50 (ACHN) | GI50 (BT-549) | GI50 (CAKI-1) | GI50 (EKVX) | GI50 (HCC 2998) | GI50 (HCT-15) | GI50 (HOP-62) | GI50 (HT-29) | GI50 (Hs-578T) | GI50 (K562) | GI50 (MCF7) | GI50 (MDA-MB-231) | GI50 (MDA-N) | GI50 (NCI/ADR-RES) | GI50 (LOX IMVI) | GI50 (OVCAR-3) | GI50 (PC-3) | GI50 (SK-MEL-5) | GI50 (SNB-75) |
| --- | --- | --- | --- | --- | --- | --- | --- | --- | --- | --- | --- | --- | --- | --- | --- | --- | --- | --- | --- |
| CCN(CC)CCNc1ccc2nnn3c4ccc(OCCN(CC)CC)cc4c(=O)c1c23 | 65.2 µM (inactive) | > 100 µM (inactive) | 66.1 µM (inactive) | 71 µM (inactive) | > 100 µM (inactive) | 64.6 µM | 19.4 µM (inactive) | 18.5 µM (inactive) | > 100 µM (inactive) | 38.6 µM (inactive) | 33.6 µM (inactive) | 23.1 µM (inactive) | 66.5 µM (inactive) | 57.7 µM (inactive) | – | – | – | – | – |
| CNc1ccc2nc(-c3ccc(OC(=O)N(C)C)cc3)cn2c1 | 19.2 µM (inactive) | 17.8 µM (inactive) | 21.4 µM (inactive) | 19.3 µM (inactive) | 30.1 µM (inactive) | 19.5 µM | 18.8 µM (inactive) | 17.7 µM (inactive) | 41.2 µM (inactive) | 21 µM (inactive) | 20.7 µM (inactive) | 17.1 µM (inactive) | 19.2 µM (inactive) | 23.3 µM (inactive) | 17.7 µM (inactive) | 40.7 µM (inactive) | 16 µM (inactive) | 23.1 µM (inactive) | – |
| N#CC12C(=O)N3C(=NC(c4ccco4)NC3c3ccco3)C1(C#N)C(c1ccco1)NC1=C2CCCC1 (centres undefined) | > 100 µM (inactive) | > 100 µM (inactive) | > 100 µM (inactive) | > 100 µM (inactive) | > 100 µM (inactive) | > 100 µM | > 100 µM (inactive) | > 100 µM (inactive) | > 100 µM (inactive) | > 100 µM (inactive) | > 100 µM (inactive) | > 100 µM (inactive) | > 100 µM (inactive) | > 100 µM (inactive) | > 100 µM (inactive) | – | > 100 µM (inactive) | > 100 µM (inactive) | – |
| CCOC(=O)c1cnc(N(C)C)nc1SC(=N)N | > 100 µM (inactive) | > 100 µM (inactive) | > 100 µM (inactive) | > 100 µM (inactive) | – | > 100 µM | > 100 µM (inactive) | > 100 µM (inactive) | > 100 µM (inactive) | > 100 µM (inactive) | > 100 µM (inactive) | > 100 µM (inactive) | > 100 µM (inactive) | > 100 µM (inactive) | > 100 µM (inactive) | > 100 µM (inactive) | > 100 µM (inactive) | > 100 µM (inactive) | > 100 µM (inactive) |
| c1ccc2c(c1)NC(C1OC3CCCN3C1C1Nc3ccccc3S1)S2 (centres undefined) | > 100 µM (inactive) | 78.2 µM (inactive) | > 100 µM (inactive) | > 100 µM (inactive) | > 100 µM (inactive) | 48.9 µM | 97.9 µM (inactive) | 44.4 µM (inactive) | > 100 µM (inactive) | 31 µM (inactive) | 44.2 µM (inactive) | – | – | – | – | 46.5 µM (inactive) | 44.1 µM (inactive) | 39.6 µM (inactive) | 69.7 µM (inactive) |
| O=C1c2ccccc2-c2nc(/C=C/c3ccccc3)cc3c2c1nc1ccccc13 | 26.4 µM (inactive) | 36.8 µM (inactive) | 26 µM (inactive) | 53.8 µM (inactive) | 20.4 µM (inactive) | 2.52 µM | 16.3 µM (inactive) | 30.8 µM (inactive) | 12.3 µM (inactive) | 3.47 µM (inactive) | 19.1 µM (inactive) | 24.4 µM (inactive) | – | 33.8 µM (inactive) | – | 0.265 µM (active) | 4.56 µM (inactive) | 2.32 µM (inactive) | 17.8 µM (inactive) |
| CCOC(=O)C(NC(=O)Nc1ccccc1F)(OC)C(F)(F)F (centres undefined) | > 100 µM (inactive) | > 100 µM (inactive) | 44.5 µM (inactive) | > 100 µM (inactive) | > 100 µM (inactive) | > 100 µM | – | > 100 µM (inactive) | > 100 µM (inactive) | > 100 µM (inactive) | – | – | > 100 µM (inactive) | > 100 µM (inactive) | > 100 µM (inactive) | – | > 100 µM (inactive) | > 100 µM (inactive) | > 100 µM (inactive) |
| NC(=O)c1c(NC=O)ncn1C1OCC(O)C(O)C1O (centres undefined) | > 100 µM (inactive) | > 100 µM (inactive) | > 100 µM (inactive) | > 100 µM (inactive) | – | > 100 µM | > 100 µM (inactive) | > 100 µM (inactive) | > 100 µM (inactive) | > 100 µM (inactive) | – | > 100 µM (inactive) | > 100 µM (inactive) | > 100 µM (inactive) | > 100 µM (inactive) | > 100 µM (inactive) | > 100 µM (inactive) | > 100 µM (inactive) | > 100 µM (inactive) |
| NC(CCC(=O)NC(CCC(=O)NO)C(=O)NCC(=O)O)C(=O)O (centres undefined) (γGlu-Glu(NHOH)-Gly-OH; configuration not given here) | > 100 µM (inactive) | > 100 µM (inactive) | > 100 µM (inactive) | > 100 µM (inactive) | > 100 µM (inactive) | > 100 µM | > 100 µM (inactive) | > 100 µM (inactive) | – | > 100 µM (inactive) | > 100 µM (inactive) | > 100 µM (inactive) | > 100 µM (inactive) | > 100 µM (inactive) | > 100 µM (inactive) | > 100 µM (inactive) | > 100 µM (inactive) | > 100 µM (inactive) | > 100 µM (inactive) |
